Earlier results, collected in patent US20100021879A1, “COMPOSITIONS AND METHODS FOR PRESERVING RED BLOOD CELLS” (THE REGENTS OF THE UNIVERSITY OF MICHIGAN, priority 2007, published 2010).

Columns and labels:
erythrocyte = conditions: prior to hemolysis

Compound	K leak (erythrocyte)	erythrocyte deformability evidenced by ektacytometry (erythrocyte)	red blood cell deformability (red blood cells)
OCl [hypochlorous acid]	increase in K leak	changes in erythrocyte deformability	–
CC[N+](CC)(CC)CC [TEA]	–	–	increased deformability
